Measurements from US11377501B2, “Peptide having high affinity for PD-L1 protein and use thereof” (priority 2017, dated 2022).
Entries after “also recorded” stand apart in the source; their conditions may differ. Where no end group is shown, it is not given here.

Tests used:
[1] = target: PD-1/PD-L1 (Homo sapiens, UniProt Q9NZQ7); assay: Competitive binding ELISA between PPLC peptide and PD-1 to PD-L1 protein; settings: 2 μg/ml coated PD-L1, 1 μg/ml PD-1 protein
Method: (§1) A 96-well ELISA plate was coated with 2 μg/ml PD-L1 protein at 4° C. overnight. Different concentrations of PPLC peptide and 1 μg/ml PD-1 protein were mixed and incubated together. After incubation, rabbit anti-human PD-1 monoclonal antibody was added as primary antibody, and then HRP-conjugated goat anti-rabbit IgG monoclonal antibody was added as secondary antibody. After ABTS color development, the OD value at 410 nm was measured using a M5 microplate reader, and GraphPad Prism 6 was used for plotting and analysis.
as §1, with “1 μg/ml of PD-1 protein” for “1 μg/ml PD-1 protein”

[2] = target: T1, recombinant human PD-L1 protein expressed on CHO cell surface (Homo sapiens, UniProt Q9NZQ7); assay: Binding of FITC-labeled PPLC peptide to PD-L1 expressed on CHO cell surface (flow cytometry, fluorescence confocal); type: cell-based; settings: CHO cells transfected with human PD-L1, FITC-labeled peptide, flow cytometry and confocal
T1 construct: expressed in transfected cells; host or cells: CHO cell line
T1 sequence (Q9NZQ7 19-290): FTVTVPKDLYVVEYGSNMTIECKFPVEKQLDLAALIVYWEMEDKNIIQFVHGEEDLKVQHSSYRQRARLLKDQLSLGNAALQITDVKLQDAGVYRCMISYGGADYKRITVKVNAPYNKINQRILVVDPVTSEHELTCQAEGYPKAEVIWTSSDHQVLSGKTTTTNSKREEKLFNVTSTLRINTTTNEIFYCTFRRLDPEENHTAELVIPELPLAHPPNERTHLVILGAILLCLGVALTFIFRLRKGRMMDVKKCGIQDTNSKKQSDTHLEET
Method: (§2) The recombinant plasmid expressing recombinant human PD-L1 protein was transfected into CHO cell line and incubated for 36 hours. After incubation, anti-PD-L1 monoclonal antibody or PPLC peptide labeled with FITC was added and incubated at 4° C. for 30 minutes. After incubation, flow cytometry was performed (FIG. 3). After transfection of the plasmid, the cells were further cultured for 36 hours, and then the PPLC peptide labeled with FITC was added and incubated at 37° C. for 30 minutes. After incubation, fluorescence confocal detection was performed (FIG. 4).
as §2, with “added,” for “added”, “performed.” for “performed (FIG. 3).”, “performed.” for “performed (FIG. 4).”

[3] = system: mouse tumor; assay: Effect of PPLC peptide on tumor volume and survival in mouse tumor model; type: in vivo; settings: subcutaneous tumors in female Balb/c mice
Method: (§3) The experimental animals were divided into two groups: PBS group and PPLC group. Tumors were injected subcutaneously into 6 weeks old female Balb/c mice. Two weeks later, when the tumor size reached 100 mm^3, PPLC drug treatment was performed. The size of the mouse tumor was measured daily and the change was recorded.
as §3, with “into” for “into 6 weeks old”

PD-1/PD-L1, sequence (Q9NZQ7 19-238 limits assumed): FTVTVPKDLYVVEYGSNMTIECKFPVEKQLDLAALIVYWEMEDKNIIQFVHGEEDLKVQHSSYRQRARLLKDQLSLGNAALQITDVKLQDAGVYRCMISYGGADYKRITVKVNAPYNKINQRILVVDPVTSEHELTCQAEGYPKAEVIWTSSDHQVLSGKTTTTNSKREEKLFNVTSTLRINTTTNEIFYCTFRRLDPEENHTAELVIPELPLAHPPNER

Sequence: VSVSHFQKVWVV [PPLC]
- blocking of the binding of PD-1/PD-L1 [1]: can effectively block the binding of PD-1/PD-L1
- binding to PD-L1 protein expressed on the cell surface [2]: can efficiently bind to the PD-L1 protein expressed on the cell surface; also recorded: has a high affinity for PD-L1 expressed on the surface of CHO cells
- growth rate of mouse tumor / tumor size ([3]; treatment from tumor size 100 mm^3, versus PBS group): can significantly reduce the growth rate of mouse tumor; also recorded: significantly smaller than that of the control group
- survival time of mice ([3]; versus PBS group): prolong the survival time of mice
